Data on one compound can be found in PMC10101930 (Immunity, 2023).

This assay deals with NHR-86 (Caenorhabditis elegans, UniProt Q965W2). As to the kind of experiment: intrinsic tryptophan fluorescence quenching of purified LBD. It is filed as binding.

Each structure is given as a SMILES string.

Sequence of NHR-86 (Q965W2 130-405): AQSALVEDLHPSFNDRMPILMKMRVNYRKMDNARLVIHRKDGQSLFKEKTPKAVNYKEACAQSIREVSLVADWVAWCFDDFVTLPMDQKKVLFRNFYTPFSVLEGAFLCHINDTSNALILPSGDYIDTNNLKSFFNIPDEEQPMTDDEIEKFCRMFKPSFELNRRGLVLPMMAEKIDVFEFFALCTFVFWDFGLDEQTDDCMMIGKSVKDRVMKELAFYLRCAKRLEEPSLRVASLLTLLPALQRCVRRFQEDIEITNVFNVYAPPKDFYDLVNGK

`NC(=O)c1cccc2nc3ccccc3nc12` [PCN, phenazine-1-carboxamide] yielded a dissociation constant Kd of 24.2 µM. This lies in the double-digit micromolar range.
